Values belong to the compound of their own block, whether it stands above or below them.
What was measured:
[1] = Stability in monkey whole blood assessed as half life by LC/MS/MS analysis; type: ADME, tissue-based, Macaca mulatta; settings: rhesus monkey
[2] = Stability in dog whole blood assessed as half life by LC/MS/MS analysis; type: ADME, tissue-based, Canis lupus familiaris
[3] = test system: GTPase KRas (Homo sapiens), P01116 [G12C]; test: Binding affinity to KRAS G12C mutant (unknown origin) measured after 3 mins
NCI-H358 [4] = test: Antitumor activity against human NCI-H358 cells xenografted in Balb/c nude mouse assessed as tumor growth inhibition at 5 mg/kg measured after 27 days by vernier caliper based assay relative to control; type: functional; settings: NCI-H358, 648 h, time 27 day, read-out: TGI
A-375 = test: Antiproliferative activity against human A-375 cells by CellTiter-Glo assay; type: functional, cell-based
NCI-H358 [5] = test: Antitumor activity against human NCI-H358 cells xenografted in Balb/c nude mouse assessed as tumor growth inhibition at 15 mg/kg measured after 27 days by vernier caliper based assay relative to control; type: functional; settings: NCI-H358, 648 h, time 27 day, read-out: TGI
MIA PaCa-2 = test: Antiproliferative activity against human MIA PaCa-2 cells harbouring KRAS G12C mutant by CellTiter-Glo assay; type: functional, cell-based
[6] = test system: GTPase KRas (Homo sapiens), P01116 [G12C]; test: Inhibition of KRAS G12C mutant (unknown origin); settings: concentration not given here
NCI-H358 [7] = test: Antiproliferative activity against human NCI-H358 cells harbouring KRAS G12C mutant by CellTiter-Glo assay; type: functional, cell-based
GTPase KRas [8] = target: T1, GTPase KRas (Homo sapiens, UniProt P01116, G12C); test: Inhibition of KRAS G12C mutant in human NCI-H358 cells measured after 6 hrs; type: cell-based
[9] = test system: GTPase KRas (Homo sapiens), P01116 [G12C]; test: Inhibition of KRAS G12C mutant (unknown origin) at 10 uM relative to control
GTPase KRas [10] = target: T1, GTPase KRas; test: Inhibition of KRAS G12C mutant in human MIA PaCa-2 cells measured after 6 hrs; type: cell-based
[11] = test system: von Hippel-Lindau disease tumor suppressor/GTPase KRas (Homo sapiens), P01116+P40337 [G12C]; test: PROTAC activity at VHL/KRAS G12C mutant in human NCI-H2030 cells assessed as induction of KRAS G12C degradation relative to control; type: cell-based
GTPase KRas [12] = target: T1, GTPase KRas; test: Inhibition of KRAS G12C mutant in human NCI-H23 cells; type: cell-based
GTPase KRas [13] = target: T1, GTPase KRas; test: Inhibition of KRAS G12C mutant in human NCI-H2030 cells; type: cell-based
[14] = test system: GTPase KRas (Homo sapiens), P01116 [G12C]; test: Inhibition of KRAS G12C mutant (1 to 169 residues) (unknown origin) at 5 uM incubated for 1 min by Mass spectrometry reactivity assay
GTPase KRas [15] = target: T1, GTPase KRas; test: Inhibition of KRAS G12C mutant (unknown origin) by HTRF method
GTPase KRas [16] = target: T1, GTPase KRas; test: Inhibition of KRAS G12C mutant in human HCC1171 cells; type: cell-based
[17] = test system: GTPase KRas (Homo sapiens), P01116 [G12C]; test: Inhibition of his tagged KRAS G12C mutant (1 to 169 residues) (unknown origin) by RapidFire mass spectrometric analysis; settings: concentration not given here
[18] = test system: GTPase KRas (Homo sapiens), P01116 [G12C]; test: Inhibition of KRAS G12C mutant (unknown origin) at 5 uM relative to control
[19] = target: T2, von Hippel-Lindau disease tumor suppressor/GTPase KRas (Homo sapiens, UniProt P01116+P40337, G12C); test: PROTAC activity at VHL/KRAS G12C mutant in human NCI-H23 cells assessed as induction of KRAS G12C degradation; type: cell-based
[20] = test system: von Hippel-Lindau disease tumor suppressor/GTPase KRas (Homo sapiens), P01116+P40337 [G12C]; test: PROTAC activity at VHL/KRAS G12C mutant in human NCI-H23 cells assessed as induction of KRAS G12C degradation relative to control; type: cell-based
[21] = target: T2, von Hippel-Lindau disease tumor suppressor/GTPase KRas; test: PROTAC activity at VHL/KRAS G12C mutant in human NCI-H2030 cells assessed as induction of KRAS G12C degradation; type: cell-based

SMILES: C=CC(=O)N1CCN(c2nc(OCCN3CC(F)(F)C3)nc3c(F)c(-c4c(O)cccc4F)c(Cl)cc23)CC1
- half-life [1]: 7.8 h
- half-life [2]: 3 h
- Activity [3]: > 90%

SMILES: C=CC(=O)N1CCN(c2ncnc3c(=O)n(-c4c(N)c(Cl)cc(Cl)c4F)c(C(F)(F)F)cc23)CC1
- inhibition in vivo at 5 mg/kg (NCI-H358 [4]): 107%
- IC50 (A-375): 7320 nM
- inhibition in vivo at 15 mg/kg (NCI-H358 [5]): 116%
- IC50 (MIA PaCa-2): 70000 nM

SMILES: C=CC(=O)N1CCN(c2ncnc3c(=O)n(-c4c(O)cccc4F)c(C(F)(F)F)cc23)CC1
- IC50 (A-375): > 50000 nM
- IC50 (NCI-H358 [7]): 5360 nM
- IC50 (MIA PaCa-2): 6480 nM

SMILES: C=CC(=O)N1CCN(c2ncnc3c(F)c(-c4c(O)cccc4F)c(Cl)cc23)CC1
- inhibition in vivo at 15 mg/kg (NCI-H358 [5]): 52%

SMILES: C=C(F)C(=O)N1CCN(c2nc(CO[C@@H]3CCCN3CCC(=O)NCCOCCOCCC(=O)N[C@@H](C(=O)N3[C@H](O)CC[C@H]3C(=O)NCc3ccc(-c4scnc4C)cc3)C(C)(C)C)nc3c2CCN(c2cccc4cccc(Cl)c24)C3)C[C@@H]1CC#N
- Emax [11]: 30%
- EC50 (GTPase KRas [12]): 1300 nM
- EC50 (GTPase KRas [13]): > 10000 nM

SMILES: C=CC(=O)N1CCN(c2nc(O[C@@H]3CN(C)C[C@H]3OC)nc3c(Oc4c(Cl)c(Cl)cc5[nH]ncc45)nc(Cl)cc23)CC1
- inhibition [14]: 82%

SMILES: C=CC(=O)N1CCN(c2nc(OC[C@@H]3CCCN3C)nc3c2C[C@@H](C)C(c2cc(O)cc4ccccc24)C3)[C@@H](C)C1 (stereo partly drawn)
- IC50 (GTPase KRas [15]): < 10 nM
- IC50 (GTPase KRas [16]): < 6 nM

SMILES: C=CC(=O)N1CCN(c2nc(Oc3cccc4c3CCN(C)C4)nc3c(Oc4c(Cl)c(F)cc5[nH]ncc45)nccc23)CC1
- inhibition [14]: 80%

SMILES: C=C(F)C(=O)N1CCN(c2nc(CO[C@@H]3CCCN3CCCOCCC(=O)N[C@@H](C(=O)C3N[C@H](C(=O)NCc4ccc(-c5scnc5C)cc4)C[C@H]3O)C(C)(C)C)nc3c2CCN(c2cccc4cccc(Cl)c24)C3)C[C@@H]1CC#N (stereo partly drawn)
- DC50 [19]: 760 nM
- Emax [11]: 75%
- Emax [20]: 90%
- EC50 (GTPase KRas [12]): 2900 nM
- DC50 [21]: 590 nM
- EC50 (GTPase KRas [13]): 3800 nM

Now from value to compound:

- half-life [1]: 7.8 h
- half-life [2]: 3 h
- Activity [3]: > 90%
SMILES: C=CC(=O)N1C[C@H](C)N(c2nc(OCCN3CC(F)(F)C3)nc3c(F)c(-c4c(O)cccc4F)c(Cl)cc23)C[C@H]1C

- inhibition [6]: > 90%
SMILES: C=CC(=O)N1CCN(c2nc(OCCN3CCCC3=O)nc3c(F)c(-c4c(O)cccc4F)c(Cl)cc23)CC1

- half-life [1]: 3.9 h
- half-life [2]: 5.95 h
- Activity [3]: > 90%
SMILES: C=CC(=O)N1C[C@H](C)N(c2nc(N3CC(N(C)C)C3)nc3c(F)c(-c4c(C)ccc5cn[nH]c45)c(Cl)cc23)C[C@H]1C

- IC50 (GTPase KRas [8]): 64 nM
- inhibition [9]: 80%
- IC50 (GTPase KRas [10]): 60 nM
SMILES: C=CC(=O)N1CCN(c2nc(N3CC(N(C)C)C3)nc3c2C[C@@H](C)[C@H](c2c(Cl)c(C)cc4[nH]ccc24)C3)C[C@H]1C

- inhibition [17]: > 50%
SMILES: C=CC(=O)N1CCN(c2c3c(nc4c(F)c(-c5c(O)cccc5F)c(Cl)cc24)NC(=O)NC3)CC1

- IC50 (GTPase KRas [8]): 102 nM
- inhibition [18]: 78%
- IC50 (GTPase KRas [10]): 68 nM
SMILES: C=CC(=O)N1CCN(c2nc(N3CC(N(C)C)C3)nc3c2C[C@@H](C)C(c2c(C)c(Cl)cc4[nH]ncc24)C3)CC1 (stereo partly drawn)

From ChEMBL document CHEMBL5523694, “Research progress on small molecule inhibitors targeting KRAS G12C with acrylamide structure and the strategies for solving KRAS inhibitor resistance” (Bioorg Med Chem, 2024)
